# Results reported in patent publication US20170023550A1, “ENGINEERED THREE-DIMENSIONAL BREAST TISSUE, ADIPOSE TISSUE, AND TUMOR DISEASE MODEL” (Organovo, Inc., priority 2014, published 2017).
# Key:
# Type in all cases: cell-based, human
# [1] = test system: bioprinted breast cancer constructs (MCF7/HUVEC cancer node surrounded by NHMF, HUVEC, SPA stroma); assay: Construct viability after drug treatment by alamarBlue assay; conditions: 10 μM compound for 3 days, followed by 100 μM compound for 24 hours; FIG. 14
# From the text: The stromal compartment of the constructs was comprised of 65% NHMF, 25% HUVEC, and 10% SPA (partially pre-differentiated). The cancer compartment of the constructs was comprised of 75% MCF7, 25% HUVEC. For each compartment, cells were mixed together at the indicated ratio and resuspended in Novogel® 3.0 at a concentration of 150 million cells/ml. Constructs were printed as 3 layered structures with a dimension of 3 mm×3 mm×0.75 mm. Immediately following bioprinting, constructs were stabilized via crosslinking After 2 minutes, the calcium crosslinking solution was aspirated and replaced with culture media. After 2 days in culture, constructs were treated overnight with enzyme dissolved in culture media to remove the Novogel® 3.0. Constructs were then incubated for up to 9 additional days. All compounds were acquired from Sigma-Aldrich and were dissolved in DMSO. Compounds were diluted to a final concentration of 10 μM or 100 μM in media. The final DMSO concentration was 0.1%, which was used for vehicle treatment. Constructs were assessed for metabolic activity by alamarBlue assay (Life Technologies, Carlsbad, Calif.) or CellTiter Glo assay (Promega, Madison, Wis.). Constructs were treated for 24 hours for labeled compound uptake studies, or for 4 days for assessment of metabolic activity.
# [2] = test system: bioprinted breast cancer tumor models (cancer and stromal compartments); assay: Apoptosis by TUNEL staining with CK8 and TE7 markers in bioprinted breast cancer tumor model; conditions: 100 μM cisplatin for 4 days; FIG. 22
# From the text: (§1) The breast cancer tumor models included a nodule of human breast cancer cells surrounded by a physiologically-relevant stromal layer, which included human adipocytes differentiated from human mesenchymal stem cells, human mammary fibroblasts, and human endothelial cells. The adipocytes were derived from mesenchymal stem cells which were isolated an exposed to an adipocyte differentiation signal prior to preparation of the bio-ink and bioprinting.
# Referring to FIG. 22, bioprinted tissues were treated with vehicle (A-C) or 100 μM cisplatin (D-F) for 4 days. The first (A and D) and second (B and E) columns depict tissues assessed for apoptosis by TUNEL staining (green) and markers for cancer cells (CK8, red). The last ([…]) column depicts tissues assessed for apoptosis by TUNEL staining (green) and markers for fibroblasts (TE7, red).
# [3] = test system: breast cancer cells in two-dimensional cell culture and bioprinted breast cancer tumor models; assay: Tamoxifen drug response by ATP luciferase assay, two-dimensional breast cancer cell culture compared to bioprinted breast cancer tumor models; conditions: 10 μM tamoxifen for 48 hours; FIG. 20
# From the text: as §1
# The breast cancer tumor models were exposed to chemotherapy compounds in order to access drug response. Referring to FIG. 20, breast cancer cells grown in two-dimensional cell culture (A) and the bioprinted breast cancer tumor models (B) were treated with media alone, DMSO, or 10 μM tamoxifen for 48 hours and assessed for viability by ATP luciferase assay. For each graph, * indicates p<0.05 for treatment compared to control.
Compound,construct viability relative to media or vehicle controls (alamarBlue) [1],"apoptosis by TUNEL staining, stromal compartment vs cancer compartment [2]","susceptibility to tamoxifen-induced toxicity, two-dimensional cancer cells vs three-dimensional bioprinted constructs (viability by ATP luciferase assay) [3]"
"N.N.[Cl][Pt][Cl] [Cisplatin, cisplatin]",decreased construct viability,induces greater apoptosis in the stromal compartment of bioprinted tissues than in the cancer compartment,
CC(=O)O[C@H]1C(=O)[C@@]2(C)[C@H]([C@H](OC(=O)c3ccccc3)[C@]3(O)C[C@H](OC(=O)[C@H](O)[C@@H](NC(=O)c4ccccc4)c4ccccc4)C(C)=C1C3(C)C)[C@]1(OC(C)=O)CO[C@@H]1C[C@@H]2O [paclitaxel],decreased construct viability,,
CC/C(=C(\c1ccccc1)c1ccc(OCCN(C)C)cc1)c1ccccc1 [tamoxifen],,,more susceptible to tamoxifen-induced toxicity than cells incorporated into three-dimensional bioprinted constructs
